Tests used:
Assay type in all cases: biochemical
[1] = molecular target: MAGL (Homo sapiens (Human), UniProt Q99685); experiment: In vitro competitive activity-based protein profiling, human proteomes (prefrontal cortex or PC3 cell membrane fractions); conditions: human proteome; for inhibition at 1 µM: read-out: MAGL % inh. 1 μM (human)
Experimental: (§1) In Vitro Competitive Activity-Based Protein Profiling.
(§2) Proteomes (mouse brain membrane fraction or cell lysates for mouse assays; human prefrontal cortex or PC3 cell membrane fractions for human assays) (50 μL, 1.0 or 2.0 mg/mL total protein concentration) were preincubated with varying concentrations of inhibitors at 37° C. After 30 min, FP-Rh or JW912 or HT-01 (1.0 μL, 50 μM in DMSO) was added and the mixture was incubated for another 30 min at 37° C. Reactions were quenched with SDS loading buffer (15 μL-4×) and run on SDS-PAGE. Following gel imaging, serine hydrolase activity was determined by measuring fluorescent intensity of gel bands corresponding to MAGL and FAAH using ImageJ 1.43u software.

[2] = molecular target: MAGL (Mus musculus (Mouse), UniProt O35678); experiment: In vitro competitive activity-based protein profiling, mouse proteomes (brain membrane fraction or cell lysates); conditions: mouse proteome, read-out: MAGL % inh. 1 μM (mouse)
Chain of MAGL (Mus musculus (Mouse), UniProt O35678) (O35678 whole entry): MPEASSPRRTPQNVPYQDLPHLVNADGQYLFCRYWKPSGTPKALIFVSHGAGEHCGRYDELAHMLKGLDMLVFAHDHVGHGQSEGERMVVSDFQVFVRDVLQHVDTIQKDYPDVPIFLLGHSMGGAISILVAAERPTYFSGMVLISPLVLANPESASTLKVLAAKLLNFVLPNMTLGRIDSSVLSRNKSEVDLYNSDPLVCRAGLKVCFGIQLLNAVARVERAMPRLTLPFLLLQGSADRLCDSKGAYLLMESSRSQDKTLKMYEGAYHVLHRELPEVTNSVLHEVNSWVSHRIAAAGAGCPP
Experimental: as §1, §2

[3] = molecular target: FAAH (Mus musculus (Mouse), UniProt O08914); experiment: as above; conditions: mouse proteome, read-out: FAAH % inh. 1 μM (mouse)
Chain of FAAH (O08914 whole entry): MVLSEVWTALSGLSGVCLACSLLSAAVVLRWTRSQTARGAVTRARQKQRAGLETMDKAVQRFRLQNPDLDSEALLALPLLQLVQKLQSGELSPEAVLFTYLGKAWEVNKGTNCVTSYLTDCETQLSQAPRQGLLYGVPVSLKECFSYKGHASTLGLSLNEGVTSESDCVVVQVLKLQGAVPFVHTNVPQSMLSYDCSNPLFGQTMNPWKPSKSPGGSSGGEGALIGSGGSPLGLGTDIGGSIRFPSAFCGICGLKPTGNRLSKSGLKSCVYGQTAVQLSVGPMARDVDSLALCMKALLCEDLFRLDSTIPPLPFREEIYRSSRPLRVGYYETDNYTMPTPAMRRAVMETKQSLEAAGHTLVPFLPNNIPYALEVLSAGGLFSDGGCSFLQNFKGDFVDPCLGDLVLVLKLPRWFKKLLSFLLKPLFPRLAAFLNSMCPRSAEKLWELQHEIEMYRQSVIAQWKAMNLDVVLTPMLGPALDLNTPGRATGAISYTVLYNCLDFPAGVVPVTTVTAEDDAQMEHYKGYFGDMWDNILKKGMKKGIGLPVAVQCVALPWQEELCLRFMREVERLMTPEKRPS
Experimental: as §1, §2

Chain of MAGL (Homo sapiens (Human), UniProt Q99685) (Q99685 whole entry): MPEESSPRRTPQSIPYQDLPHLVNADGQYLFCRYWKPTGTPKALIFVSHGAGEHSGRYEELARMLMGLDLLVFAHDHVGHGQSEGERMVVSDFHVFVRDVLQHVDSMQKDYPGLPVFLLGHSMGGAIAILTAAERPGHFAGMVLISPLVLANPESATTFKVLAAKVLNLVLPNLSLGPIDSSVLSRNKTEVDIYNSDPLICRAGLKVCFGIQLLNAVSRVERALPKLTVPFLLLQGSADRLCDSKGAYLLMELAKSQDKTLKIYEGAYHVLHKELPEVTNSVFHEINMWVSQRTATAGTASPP

Compound | inhibition at 1 µM [1] | inhibition at 1 µM [2] | IC50 [1] | inhibition at 1 µM [3] | inhibition at 10 µM ([1]; 10 μM, read-out: MAGL % inh. (human) @ 10 μM)
C[C@H]1CN(C(=O)n2ccc(NS(C)(=O)=O)n2)CCN1Cc1ccc(C(F)(F)F)c(N2CC3COCC3C2)c1 (stereo partly drawn) [Example 179, N-(1-((3S)-3-Methyl-4-(3-(tetrahydro-1H-furo[3,4-c]pyrrol-5(3H)-yl)-4-(trifluoromethyl)benzyl)piperazine-1-carbonyl)-1H-pyrazol-3-yl)methanesulfonamide] | > 75% | > 75% | < 0.1 µM |  | 
C[C@H]1CN(C(=O)n2ccc(NS(C)(=O)=O)n2)CCN1Cc1ccc(C(F)(F)F)c(N2CCC(F)CC2)c1 [Example 187, (S)-N-(1-(4-(3-(4-Fluoropiperidin-1-yl)-4-(trifluoromethyl)benzyl)-3-methylpiperazine-1-carbonyl)-1H-pyrazol-3-yl)methanesulfonamide] | > 75% | > 75% | < 0.1 µM |  | 
CN(Cc1ccc(Cl)c(N2CC3COCC3C2)c1)C1CCN(C(=O)n2ccc(NS(C)(=O)=O)n2)CC1 (stereo not drawn) [Example 177, N-(1-(4-((4-Chloro-3-(tetrahydro-1H-furo[3,4-c]pyrrol-5(3H)-yl)benzyl)(methyl)amino)piperidine-1-carbonyl)-1H-pyrazol-3-yl)methanesulfonamide] | > 75% | > 75% |  |  | 
CC(=O)Nc1ccn(C(=O)N2C[C@H]3C[C@@H](N(C)Cc4ccccc4Cl)C[C@H]3C2)n1 [Example 37, N-(1-((3aR,5r,6aS)-5-((2-Chlorobenzyl)(methyl)amino)octahydrocyclopenta[c]pyrrole-2-carbonyl)-1H-pyrazol-3-yl)acetamide] |  | > 75% |  | > 75% | 
CC(C)C(=O)Nc1ccn(C(=O)N2CCN(Cc3ccc(C(F)(F)F)cc3N3CCCC3)CC2)n1 [Example 161, N-(1-(4-(2-(Pyrrolidin-1-yl)-4-(trifluoromethyl)benzyl)piperazine-1-carbonyl)-1H-pyrazol-3-yl)isobutyramide] |  | > 75% |  | 0 to 25% | 
CN(Cc1cc(Cl)ccc1C(F)(F)F)CC1CCN(C(=O)n2ccc(NS(C)(=O)=O)n2)CC1 [Example 184, N-(1-(4-(((5-Chloro-2-(trifluoromethyl)benzyl)(methyl)amino)methyl)piperidine-1-carbonyl)-1H-pyrazol-3-yl)methanesulfonamide] | > 75% | > 75% | < 0.1 µM |  | 
CN(Cc1ccc(Cl)c(N2CCCC2)c1)C1(C)CCN(C(=O)n2ccc(NS(C)(=O)=O)n2)CC1 [Example 183, N-(1-(4-((4-Chloro-3-(pyrrolidin-1-yl)benzyl)(methyl)amino)-4-methylpiperidine-1-carbonyl)-1H-pyrazol-3-yl)methanesulfonamide] | > 75% | > 75% |  |  | 
CC(=O)Nc1ccn(C(=O)N2CC3CN(Cc4cc(C(F)(F)F)cc(C5(C(=O)O)CCCC5)c4)CC3C2)n1 (stereo not drawn) [Example 191, 1-(3-((5-(3-Acetamido-1H-pyrazole-1-carbonyl)hexahydropyrrolo[3,4-c]pyrrol-2(1H)-yl)methyl)-5-(trifluoromethyl)phenyl)cyclopentane-1-carboxylic acid] | > 75% | > 75% |  |  | 
CS(=O)(=O)Nc1ccn(C(=O)N2CCN(Cc3ccc(C(F)(F)F)c(N4CC5COCC5C4)c3)CC2)n1 (stereo not drawn) [Example 181, N-(1-(4-(3-(Tetrahydro-1H-furo[3,4-c]pyrrol-5(3H)-yl)-4-(trifluoromethyl)benzyl)piperazine-1-carbonyl)-1H-pyrazol-3-yl)methanesulfonamide] | > 75% | > 75% | < 0.1 µM |  | 

Now from value to compound:

inhibition at 1 µM [1] | inhibition at 1 µM [2] | IC50 [1] | inhibition at 1 µM [3] | inhibition at 10 µM ([1]; 10 μM, read-out: MAGL % inh. (human) @ 10 μM) | Compound
> 75% | > 75% |  |  |  | CS(=O)(=O)Nc1ccn(C(=O)N2CC[C@H](Oc3ccc(C(F)(F)F)c(N4CCC(F)CC4)c3)[C@@H](F)C2)n1 [Example 210, N-(1-((3S,4S)-3-Fluoro-4-(3-(4-fluoropiperidin-1-yl)-4-(trifluoromethyl)phenoxy)piperidine-1-carbonyl)-1H-pyrazol-3-yl)methanesulfonamide]
> 75% | > 75% |  |  |  | CN(Cc1ccc(Cl)cc1N1CCC(F)CC1)C1(C)CCN(C(=O)n2ccc(NS(C)(=O)=O)n2)CC1 [Example 196, N-(1-(4-((4-Chloro-2-(4-fluoropiperidin-1-yl)benzyl)(methyl)amino)-4-methylpiperidine-1-carbonyl)-1H-pyrazol-3-yl)methanesulfonamide]
> 75% | 50 to 75% |  |  |  | CN(Cc1ccc(Cl)cc1N1CCOCC1)C1(C)CCN(C(=O)n2ccc(NS(C)(=O)=O)n2)CC1 [Example 198, N-(1-(4-((4-Chloro-2-morpholinobenzyl)(methyl)amino)-4-methylpiperidine-1-carbonyl)-1H-pyrazol-3-yl)methanesulfonamide]
> 75% | > 75% |  |  |  | C[C@@H]1CCCN1c1cc(CN2CCN(C(=O)n3ccc(NS(C)(=O)=O)n3)C[C@@H]2C)ccc1Cl [Example 199, N-(1-((S)-4-(4-Chloro-3-((R)-2-methylpyrrolidin-1-yl)benzyl)-3-methylpiperazine-1-carbonyl)-1H-pyrazol-3-yl)methanesulfonamide]
> 75% | > 75% |  |  |  | C[C@H]1CN(C(=O)n2ccc(NS(C)(=O)=O)n2)CCN1Cc1cc(N2CCC(F)CC2)c(Cl)cn1 [Example 223, (S)-N-(1-(4-((5-Chloro-4-(4-fluoro-piperidin-1-yl)pyridin-2-yl)methyl)-3-methyl-piperazine-1-carbonyl)-1H-pyrazol-3-yl)methane-sulfonamide]
> 75% | > 75% |  |  |  | CS(=O)(=O)Nc1ccn(C(=O)N2CCC(OCc3ccc(Cl)c(N4CCC(F)CC4)c3)CC2)n1 [Example 209, N-(1-(4-((4-Chloro-3-(4-fluoropiperidin-1-yl)benzyl)oxy)piperidine-1-carbonyl)-1H-pyrazol-3-yl)methanesulfonamide]
> 75% | > 75% |  |  |  | CS(=O)(=O)Nc1ccn(C(=O)N2CCC3(CCCN3Cc3ccc(Cl)c(N4CCCC4)c3)CC2)n1 [Example 195, N-(1-(1-(4-Chloro-3-(pyrrolidin-1-yl)benzyl)-1,8-diazaspiro[4.5]decane-8-carbonyl)-1H-pyrazol-3-yl)methanesulfonamide]
> 75% | > 75% |  |  |  | C[C@@H]1CN(C(=O)n2ccc(NS(C)(=O)=O)n2)CCN1Cc1ccc(Cl)c(N2CCCC2)c1 [Example 224, (R)-N-(1-(4-(4-Chloro-3-(pyrrolidin-1-yl)benzyl)-3-methyl-piperazine-1-carbonyl)-1H-pyrazol-3-yl)methane-sulfonamide]
> 75% | > 75% |  |  |  | C[C@H]1CN(C(=O)n2ccc(NS(C)(=O)=O)n2)CCN1Cc1ccc(C(F)(F)F)c(N2CC[C@H](F)C2)c1 [Example 192, N-(1-((S)-4-(3-((S)-3-Fluoropyrrolidin-1-yl)-4-(trifluoromethyl)benzyl)-3-methylpiperazine-1-carbonyl)-1H-pyrazol-3-yl)methanesulfonamide]
 | 0 to 25% |  |  | 50 to 75% | C[C@H]1C[C@@H](N(C)Cc2ccc(Cl)c(N3CC4COCC4C3)c2)CCN1C(=O)n1ccc(NS(C)(=O)=O)n1 (stereo partly drawn) [Example 194, N-(1-((2S,4S)-4-((4-chloro-3-(Tetrahydro-1H-furo[3,4-c]pyrrol-5(3H)-yl)benzyl)(methyl)amino)-2-methylpiperidine-1-carbonyl)-1H-pyrazol-3-yl)methanesulfonamide]
